Read-outs that look alike come from different tables or passages of the source.
Columns and labels:
Experiment in all cases: Kinase binding screen
SNARK = SNARK (Homo sapiens (Human), UniProt Q9H093); settings: read-out: Percent Control at 100 nM Compound Concentration
MLCK = MLCK (Homo sapiens (Human), UniProt Q32MK0); settings: read-out: Percent Control at 100 nM Compound Concentration
[1] = molecular target: RPS6KA5(Kin.Dom.2-C-terminal) (Homo sapiens (Human), UniProt O75582); settings: read-out: Percent Control at 100 nM Compound Concentration
ERBB4 = ERBB4 (Homo sapiens (Human), UniProt Q15303); settings: read-out: Percent Control at 100 nM Compound Concentration
FGFR3(G697C) = FGFR3(G697C) (Homo sapiens (Human), UniProt P22607, G697C); settings: read-out: Percent Control at 100 nM Compound Concentration
LOK = LOK (Homo sapiens (Human), UniProt O94804); settings: read-out: Percent Control at 100 nM Compound Concentration
TLK2 = TLK2 (Homo sapiens (Human), UniProt Q86UE8); settings: read-out: Percent Control at 100 nM Compound Concentration
GRK7 = GRK7 (Homo sapiens (Human), UniProt Q8WTQ7); settings: read-out: Percent Control at 100 nM Compound Concentration
CDK5 = CDK5 (Homo sapiens (Human), UniProt Q00535); settings: read-out: Percent Control at 100 nM Compound Concentration
FLT3(R834Q) = FLT3(R834Q) (Homo sapiens (Human), UniProt P36888, R834Q); settings: read-out: Percent Control at 100 nM Compound Concentration
SBK1 = SBK1 (Homo sapiens (Human), UniProt Q52WX2); settings: read-out: Percent Control at 100 nM Compound Concentration
SRPK2 = SRPK2 (Homo sapiens (Human), UniProt P78362); settings: read-out: Percent Control at 100 nM Compound Concentration
p38-alpha = p38-alpha (Homo sapiens (Human), UniProt Q16539); settings: read-out: Percent Control at 100 nM Compound Concentration
CDK4-cyclinD1 = CDK4-cyclinD1 (Homo sapiens (Human), UniProt P11802); settings: read-out: Percent Control at 100 nM Compound Concentration
HIPK2 = HIPK2 (Homo sapiens (Human), UniProt Q9H2X6); settings: read-out: Percent Control at 100 nM Compound Concentration
FGFR3 = FGFR3 (Homo sapiens (Human), UniProt P22607); settings: read-out: Percent Control at 100 nM Compound Concentration
PIP5K1C = PIP5K1C (Homo sapiens (Human), UniProt O60331); settings: read-out: Percent Control at 100 nM Compound Concentration
MAP3K3 = MAP3K3 (Homo sapiens (Human), UniProt Q99759); settings: read-out: Percent Control at 100 nM Compound Concentration
EGFR = EGFR (Homo sapiens (Human), UniProt P00533); settings: read-out: Percent Control at 100 nM Compound Concentration
PIK3CD = PIK3CD (Homo sapiens (Human), UniProt O00329); settings: read-out: Percent Control at 100 nM Compound Concentration
p38-delta = p38-delta (Homo sapiens (Human), UniProt O15264); settings: read-out: Percent Control at 100 nM Compound Concentration
ZAK = ZAK (Homo sapiens (Human), UniProt Q9NYL2); settings: read-out: Percent Control at 100 nM Compound Concentration
TBK1 = TBK1 (Homo sapiens (Human), UniProt Q9UHD2); settings: read-out: Percent Control at 100 nM Compound Concentration
WEE1 = WEE1 (Homo sapiens (Human), UniProt P30291); settings: read-out: Percent Control at 100 nM Compound Concentration
p38-beta = p38-beta (Homo sapiens (Human), UniProt Q15759); settings: read-out: Percent Control at 100 nM Compound Concentration
HIPK4 = HIPK4 (Homo sapiens (Human), UniProt Q8NE63); settings: read-out: Percent Control at 100 nM Compound Concentration
GRK4 = GRK4 (Homo sapiens (Human), UniProt P32298); settings: read-out: Percent Control at 100 nM Compound Concentration
CSNK1G3 = CSNK1G3 (Homo sapiens (Human), UniProt Q9Y6M4); settings: read-out: Percent Control at 100 nM Compound Concentration
FLT3(ITD,D835V) = system: FLT3(ITD,D835V); set-up: species or system human

Chain of SBK1 (Q52WX2 whole entry): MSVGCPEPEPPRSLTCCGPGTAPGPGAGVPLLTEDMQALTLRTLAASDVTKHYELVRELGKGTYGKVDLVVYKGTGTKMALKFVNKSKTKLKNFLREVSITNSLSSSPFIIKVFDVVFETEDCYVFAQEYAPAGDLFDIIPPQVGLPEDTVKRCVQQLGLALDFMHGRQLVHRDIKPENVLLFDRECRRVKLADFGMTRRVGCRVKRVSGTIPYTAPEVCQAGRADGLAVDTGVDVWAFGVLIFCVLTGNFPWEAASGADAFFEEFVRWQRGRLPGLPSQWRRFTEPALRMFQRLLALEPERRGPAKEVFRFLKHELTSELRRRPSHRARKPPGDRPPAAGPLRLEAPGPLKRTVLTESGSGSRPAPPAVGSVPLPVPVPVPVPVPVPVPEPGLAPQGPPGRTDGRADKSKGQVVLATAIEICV
Chain of ZAK (Q9NYL2 whole entry): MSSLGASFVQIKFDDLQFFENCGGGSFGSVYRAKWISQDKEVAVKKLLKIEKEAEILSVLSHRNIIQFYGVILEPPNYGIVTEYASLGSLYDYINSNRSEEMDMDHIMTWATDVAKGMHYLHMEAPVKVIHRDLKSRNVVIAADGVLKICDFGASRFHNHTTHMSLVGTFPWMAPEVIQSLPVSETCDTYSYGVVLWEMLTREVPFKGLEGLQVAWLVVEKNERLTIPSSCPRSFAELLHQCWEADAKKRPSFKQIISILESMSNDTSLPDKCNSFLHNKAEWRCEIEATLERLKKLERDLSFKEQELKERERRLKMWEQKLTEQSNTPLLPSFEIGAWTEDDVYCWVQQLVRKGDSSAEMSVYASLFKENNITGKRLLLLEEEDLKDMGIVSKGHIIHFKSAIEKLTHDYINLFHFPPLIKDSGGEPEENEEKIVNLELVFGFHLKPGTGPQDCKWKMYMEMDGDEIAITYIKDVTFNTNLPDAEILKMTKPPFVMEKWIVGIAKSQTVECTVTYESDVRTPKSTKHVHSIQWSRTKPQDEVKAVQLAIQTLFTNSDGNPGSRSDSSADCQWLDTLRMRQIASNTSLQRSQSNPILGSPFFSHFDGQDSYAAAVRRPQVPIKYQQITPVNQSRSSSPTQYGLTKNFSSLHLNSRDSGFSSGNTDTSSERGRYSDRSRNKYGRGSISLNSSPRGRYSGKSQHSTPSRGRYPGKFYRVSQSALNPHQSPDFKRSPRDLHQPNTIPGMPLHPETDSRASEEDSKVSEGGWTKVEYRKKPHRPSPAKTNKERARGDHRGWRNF
Chain of p38-alpha (Q16539 whole entry): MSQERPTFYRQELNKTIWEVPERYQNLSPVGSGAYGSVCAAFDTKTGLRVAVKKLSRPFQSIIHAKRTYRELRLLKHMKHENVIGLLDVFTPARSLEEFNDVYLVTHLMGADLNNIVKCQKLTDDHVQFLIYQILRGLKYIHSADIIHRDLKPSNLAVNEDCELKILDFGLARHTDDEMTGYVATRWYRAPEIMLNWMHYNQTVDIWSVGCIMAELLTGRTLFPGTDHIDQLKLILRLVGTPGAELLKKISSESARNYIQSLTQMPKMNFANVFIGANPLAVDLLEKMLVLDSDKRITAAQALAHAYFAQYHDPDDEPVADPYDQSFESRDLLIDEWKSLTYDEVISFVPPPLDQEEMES
Chain of TBK1 (Q9UHD2 whole entry): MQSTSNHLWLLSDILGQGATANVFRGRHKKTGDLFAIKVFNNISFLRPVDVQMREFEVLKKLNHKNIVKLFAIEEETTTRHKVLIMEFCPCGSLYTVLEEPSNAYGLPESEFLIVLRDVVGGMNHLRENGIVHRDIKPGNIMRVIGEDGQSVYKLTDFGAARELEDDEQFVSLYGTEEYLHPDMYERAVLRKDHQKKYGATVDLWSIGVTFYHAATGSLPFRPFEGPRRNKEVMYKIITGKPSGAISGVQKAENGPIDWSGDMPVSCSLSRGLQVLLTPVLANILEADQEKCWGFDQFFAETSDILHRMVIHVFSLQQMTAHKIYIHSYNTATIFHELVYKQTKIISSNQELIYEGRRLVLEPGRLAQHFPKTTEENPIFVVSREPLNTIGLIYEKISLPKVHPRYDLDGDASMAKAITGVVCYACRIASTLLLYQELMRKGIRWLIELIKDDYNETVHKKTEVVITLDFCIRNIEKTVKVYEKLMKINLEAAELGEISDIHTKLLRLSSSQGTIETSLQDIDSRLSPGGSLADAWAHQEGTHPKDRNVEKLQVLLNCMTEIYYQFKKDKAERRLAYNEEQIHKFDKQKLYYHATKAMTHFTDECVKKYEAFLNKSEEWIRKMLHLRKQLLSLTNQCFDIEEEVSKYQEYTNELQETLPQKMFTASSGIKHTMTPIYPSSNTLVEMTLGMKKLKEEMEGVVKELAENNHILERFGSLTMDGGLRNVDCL
Chain of GRK4 (P32298 whole entry): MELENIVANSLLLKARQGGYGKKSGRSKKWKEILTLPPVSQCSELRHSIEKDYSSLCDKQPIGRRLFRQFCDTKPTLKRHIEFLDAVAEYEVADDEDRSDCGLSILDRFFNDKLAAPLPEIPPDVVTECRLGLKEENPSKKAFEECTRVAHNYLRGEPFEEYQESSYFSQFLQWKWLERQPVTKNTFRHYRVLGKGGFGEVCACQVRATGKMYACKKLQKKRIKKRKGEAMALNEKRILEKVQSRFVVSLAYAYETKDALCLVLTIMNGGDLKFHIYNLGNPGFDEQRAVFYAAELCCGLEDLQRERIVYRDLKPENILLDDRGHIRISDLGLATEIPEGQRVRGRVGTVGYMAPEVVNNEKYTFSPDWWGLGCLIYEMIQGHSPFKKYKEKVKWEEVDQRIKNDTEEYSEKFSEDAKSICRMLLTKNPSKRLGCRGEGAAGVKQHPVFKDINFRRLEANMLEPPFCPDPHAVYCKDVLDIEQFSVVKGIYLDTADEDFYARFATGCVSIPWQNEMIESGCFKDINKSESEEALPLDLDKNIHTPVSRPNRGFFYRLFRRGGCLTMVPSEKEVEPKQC
Chain of LOK (O94804 whole entry): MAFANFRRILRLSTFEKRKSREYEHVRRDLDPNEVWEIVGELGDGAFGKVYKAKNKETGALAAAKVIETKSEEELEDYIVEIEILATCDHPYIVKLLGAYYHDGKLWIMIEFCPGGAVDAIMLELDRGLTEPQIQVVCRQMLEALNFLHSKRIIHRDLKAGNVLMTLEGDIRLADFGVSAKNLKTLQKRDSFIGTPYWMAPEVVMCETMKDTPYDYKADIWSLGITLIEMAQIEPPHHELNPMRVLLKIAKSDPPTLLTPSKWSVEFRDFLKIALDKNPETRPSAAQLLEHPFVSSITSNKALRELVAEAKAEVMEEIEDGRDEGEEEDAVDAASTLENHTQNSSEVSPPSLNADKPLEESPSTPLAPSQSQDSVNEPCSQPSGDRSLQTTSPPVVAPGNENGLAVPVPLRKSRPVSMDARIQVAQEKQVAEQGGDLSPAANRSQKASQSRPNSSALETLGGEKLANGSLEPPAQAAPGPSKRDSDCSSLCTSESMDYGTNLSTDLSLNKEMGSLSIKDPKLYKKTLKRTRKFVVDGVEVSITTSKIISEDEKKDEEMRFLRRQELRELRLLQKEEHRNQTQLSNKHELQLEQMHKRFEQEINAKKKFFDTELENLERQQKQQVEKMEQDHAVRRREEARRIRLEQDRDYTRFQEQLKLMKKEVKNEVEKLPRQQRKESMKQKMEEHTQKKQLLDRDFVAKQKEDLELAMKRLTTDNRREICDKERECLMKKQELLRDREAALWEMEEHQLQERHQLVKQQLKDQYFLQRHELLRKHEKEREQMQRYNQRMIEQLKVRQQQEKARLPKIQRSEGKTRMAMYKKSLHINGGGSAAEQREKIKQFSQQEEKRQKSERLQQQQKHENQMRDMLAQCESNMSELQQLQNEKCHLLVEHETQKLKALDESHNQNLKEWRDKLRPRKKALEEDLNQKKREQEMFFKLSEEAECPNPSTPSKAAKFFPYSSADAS
Chain of CDK5 (Q00535 whole entry): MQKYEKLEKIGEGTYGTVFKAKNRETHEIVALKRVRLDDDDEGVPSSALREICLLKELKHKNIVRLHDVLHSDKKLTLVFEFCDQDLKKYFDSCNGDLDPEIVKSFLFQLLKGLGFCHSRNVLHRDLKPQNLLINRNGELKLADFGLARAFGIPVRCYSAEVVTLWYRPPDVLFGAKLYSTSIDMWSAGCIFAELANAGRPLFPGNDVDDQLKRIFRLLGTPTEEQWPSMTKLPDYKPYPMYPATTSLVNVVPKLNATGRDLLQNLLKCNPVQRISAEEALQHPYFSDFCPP
Chain of p38-delta (O15264 whole entry): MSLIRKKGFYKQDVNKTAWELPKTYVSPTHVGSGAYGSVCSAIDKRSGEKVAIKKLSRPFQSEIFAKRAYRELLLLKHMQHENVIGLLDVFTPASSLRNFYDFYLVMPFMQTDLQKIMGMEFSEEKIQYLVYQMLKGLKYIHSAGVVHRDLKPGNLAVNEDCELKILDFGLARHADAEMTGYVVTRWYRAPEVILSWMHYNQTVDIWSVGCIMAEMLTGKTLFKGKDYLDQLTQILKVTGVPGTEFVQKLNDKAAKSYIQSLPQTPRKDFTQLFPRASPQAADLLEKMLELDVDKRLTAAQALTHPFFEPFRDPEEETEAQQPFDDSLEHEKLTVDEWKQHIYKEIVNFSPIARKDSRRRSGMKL
Chain of CSNK1G3 (Q9Y6M4 whole entry): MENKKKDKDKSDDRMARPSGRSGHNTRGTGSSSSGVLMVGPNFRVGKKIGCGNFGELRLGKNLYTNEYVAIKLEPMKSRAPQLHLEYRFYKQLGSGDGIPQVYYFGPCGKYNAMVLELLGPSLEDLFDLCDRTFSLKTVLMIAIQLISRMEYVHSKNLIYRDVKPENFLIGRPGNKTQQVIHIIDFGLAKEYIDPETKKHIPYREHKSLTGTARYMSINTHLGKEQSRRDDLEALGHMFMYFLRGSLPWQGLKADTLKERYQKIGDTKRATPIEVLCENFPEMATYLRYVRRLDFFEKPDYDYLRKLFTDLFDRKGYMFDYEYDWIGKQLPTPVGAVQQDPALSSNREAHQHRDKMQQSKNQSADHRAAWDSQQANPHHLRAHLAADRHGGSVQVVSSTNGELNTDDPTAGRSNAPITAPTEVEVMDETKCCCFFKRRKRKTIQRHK

CN(C[C@@H](O)Cc1ccccc1)C(=O)c1cncc(C#Cc2cnn(C(F)F)c2)c1 [Example 2, (S)-5-((1-(difluoromethyl)-1H-pyrazol-4-yl)ethynyl)-N-(2-hydroxy-3-phenylpropyl)-N-methylnicotinamide]
95%: remaining activity at 0.1 µM ([1]; RPS6KA5(Kin.Dom.2-C-terminal))
100%: remaining activity at 0.1 µM (MLCK; MLCK) | remaining activity at 0.1 µM (FGFR3(G697C); FGFR3(G697C)) | remaining activity at 0.1 µM (LOK; LOK) | remaining activity at 0.1 µM (TLK2; TLK2) | remaining activity at 0.1 µM (GRK7; GRK7) | remaining activity at 0.1 µM (CDK5; CDK5) | remaining activity at 0.1 µM (FLT3(R834Q); FLT3(R834Q)) | remaining activity at 0.1 µM (p38-alpha; p38-alpha) | remaining activity at 0.1 µM (CDK4-cyclinD1; CDK4-cyclinD1) | remaining activity at 0.1 µM (FGFR3; FGFR3) | remaining activity at 0.1 µM (PIP5K1C; PIP5K1C) | remaining activity at 0.1 µM (p38-delta; p38-delta) | remaining activity at 0.1 µM (ZAK; ZAK) | remaining activity at 0.1 µM (p38-beta; p38-beta) | remaining activity at 0.1 µM (HIPK4; HIPK4) | remaining activity at 0.1 µM (GRK4; GRK4) | Percent Control at 100 nM Compound Concentration (FLT3(ITD,D835V))
79%: remaining activity at 0.1 µM (TBK1; TBK1)
97%: remaining activity at 0.1 µM (SBK1; SBK1)
94%: remaining activity at 0.1 µM (ERBB4; ERBB4)
96%: remaining activity at 0.1 µM (MAP3K3; MAP3K3)
99%: remaining activity at 0.1 µM (SNARK; SNARK) | remaining activity at 0.1 µM (HIPK2; HIPK2) | remaining activity at 0.1 µM (PIK3CD; PIK3CD) | remaining activity at 0.1 µM (CSNK1G3; CSNK1G3)
93%: remaining activity at 0.1 µM (SRPK2; SRPK2) | remaining activity at 0.1 µM (EGFR; EGFR)
92%: remaining activity at 0.1 µM (WEE1; WEE1)

CN(C[C@H](Cc1ccccc1)OP(=O)(O)O)C(=O)c1cncc(C#Cc2cnn(C(F)F)c2)c1 [Example 19, (S)-1-(5-((1-(difluoromethyl)-1H-pyrazol-4-yl)ethynyl)-N-methylnicotinamido)-3-phenylpropan-2-yl dihydrogen phosphate]
93%: remaining activity at 0.1 µM (ERBB4)
79%: remaining activity at 0.1 µM (HIPK2)
90%: remaining activity at 0.1 µM [1]
97%: remaining activity at 0.1 µM (CDK4-cyclinD1) | remaining activity at 0.1 µM (p38-beta)
92%: remaining activity at 0.1 µM (MAP3K3)
85%: remaining activity at 0.1 µM (PIP5K1C) | remaining activity at 0.1 µM (PIK3CD)
95%: remaining activity at 0.1 µM (SBK1)
84%: remaining activity at 0.1 µM (TBK1)
100%: remaining activity at 0.1 µM (MLCK) | remaining activity at 0.1 µM (FGFR3(G697C)) | remaining activity at 0.1 µM (LOK) | remaining activity at 0.1 µM (TLK2) | remaining activity at 0.1 µM (GRK7) | remaining activity at 0.1 µM (CDK5) | remaining activity at 0.1 µM (FLT3(R834Q)) | remaining activity at 0.1 µM (SRPK2) | remaining activity at 0.1 µM (p38-alpha) | remaining activity at 0.1 µM (FGFR3) | remaining activity at 0.1 µM (EGFR) | remaining activity at 0.1 µM (p38-delta) | remaining activity at 0.1 µM (ZAK) | remaining activity at 0.1 µM (WEE1) | remaining activity at 0.1 µM (HIPK4) | remaining activity at 0.1 µM (GRK4) | remaining activity at 0.1 µM (CSNK1G3) | Percent Control at 100 nM Compound Concentration (FLT3(ITD,D835V))
99%: remaining activity at 0.1 µM (SNARK)
